How the values were obtained:
[1] = biological target: High affinity nerve growth factor receptor (Homo sapiens, UniProt P04629); test: Inhibition of N-terminal hexa his tagged TRKA (485 to 795 residues) (unknown origin) expressed in baculovirus expression system Sf9 cells using Ser/Thr 06 as peptide substrate incubated for 1 hr in presence of ATP by FRET based Z-LYTE assay
[2] = biological target: NT-3 growth factor receptor (Homo sapiens, UniProt Q16288); test: Inhibition of TRKC (unknown origin) using Ser/Thr 06 as peptide substrate incubated for 1 hr in presence of ATP by FRET based Z-LYTE assay
Chain of NT-3 growth factor receptor (Q16288 whole entry): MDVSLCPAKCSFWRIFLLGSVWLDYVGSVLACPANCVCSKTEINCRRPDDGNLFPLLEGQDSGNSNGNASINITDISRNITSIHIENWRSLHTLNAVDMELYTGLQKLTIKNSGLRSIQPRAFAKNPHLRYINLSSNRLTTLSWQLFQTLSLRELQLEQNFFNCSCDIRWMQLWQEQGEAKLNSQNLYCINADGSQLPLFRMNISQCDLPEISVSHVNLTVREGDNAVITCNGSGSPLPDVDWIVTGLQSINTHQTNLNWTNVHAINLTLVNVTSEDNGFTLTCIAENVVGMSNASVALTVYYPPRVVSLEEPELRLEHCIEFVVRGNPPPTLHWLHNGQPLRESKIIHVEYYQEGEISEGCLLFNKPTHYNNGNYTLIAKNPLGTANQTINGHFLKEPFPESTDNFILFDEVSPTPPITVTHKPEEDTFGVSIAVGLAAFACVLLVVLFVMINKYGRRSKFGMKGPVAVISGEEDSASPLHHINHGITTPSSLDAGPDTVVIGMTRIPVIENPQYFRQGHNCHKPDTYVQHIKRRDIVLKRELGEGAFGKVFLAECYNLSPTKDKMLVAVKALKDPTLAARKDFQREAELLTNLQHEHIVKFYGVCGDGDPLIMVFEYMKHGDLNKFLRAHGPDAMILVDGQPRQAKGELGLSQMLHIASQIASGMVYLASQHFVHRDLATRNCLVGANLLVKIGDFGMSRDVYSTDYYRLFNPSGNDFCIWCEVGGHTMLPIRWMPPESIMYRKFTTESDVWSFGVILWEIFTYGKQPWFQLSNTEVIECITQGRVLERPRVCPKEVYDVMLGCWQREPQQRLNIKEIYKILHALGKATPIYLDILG

[3] = biological target: High affinity nerve growth factor receptor (Homo sapiens, UniProt P04629, G667C); test: Inhibition of TRKA G667C mutant (unknown origin) expressed in baculovirus expression system Sf9 cells using Ser/Thr 06 as peptide substrate incubated for 1 hr in presence of ATP by FRET based Z-LYTE assay
Chain of High affinity nerve growth factor receptor (Homo sapiens, UniProt P04629, G667C) (P04629 33-796 G667C limits assumed): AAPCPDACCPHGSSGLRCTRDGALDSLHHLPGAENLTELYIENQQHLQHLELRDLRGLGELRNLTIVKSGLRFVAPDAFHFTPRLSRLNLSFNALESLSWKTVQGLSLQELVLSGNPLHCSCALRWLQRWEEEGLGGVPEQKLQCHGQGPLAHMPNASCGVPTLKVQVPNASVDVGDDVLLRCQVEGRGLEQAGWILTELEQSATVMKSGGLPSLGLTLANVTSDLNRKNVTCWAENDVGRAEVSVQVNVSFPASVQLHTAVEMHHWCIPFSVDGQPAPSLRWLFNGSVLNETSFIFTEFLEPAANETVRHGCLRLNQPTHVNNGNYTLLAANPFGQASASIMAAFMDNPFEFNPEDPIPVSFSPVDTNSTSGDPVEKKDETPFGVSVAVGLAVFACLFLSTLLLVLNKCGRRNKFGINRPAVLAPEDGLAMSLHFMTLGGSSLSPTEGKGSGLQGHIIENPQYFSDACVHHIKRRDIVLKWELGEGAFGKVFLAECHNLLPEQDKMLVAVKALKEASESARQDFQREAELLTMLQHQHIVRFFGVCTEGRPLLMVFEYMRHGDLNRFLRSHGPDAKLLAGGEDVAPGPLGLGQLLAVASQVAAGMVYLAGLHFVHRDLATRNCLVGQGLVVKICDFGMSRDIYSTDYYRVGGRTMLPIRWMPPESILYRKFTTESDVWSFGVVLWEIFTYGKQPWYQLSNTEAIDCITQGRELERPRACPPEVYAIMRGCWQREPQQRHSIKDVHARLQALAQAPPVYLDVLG

[4] = biological target: High affinity nerve growth factor receptor (Homo sapiens, UniProt P04629, G595R); test: Inhibition of TRKA G595R mutant (unknown origin) expressed in baculovirus expression system Sf9 cells using Ser/Thr 06 as peptide substrate incubated for 1 hr in presence of ATP by FRET based Z-LYTE assay
Chain of High affinity nerve growth factor receptor (Homo sapiens, UniProt P04629, G595R) (P04629 33-796 G595R limits assumed): as the sequence (P04629 33-796 G667C limits assumed) above, with G563R, C635G counted along it

BaF3 [5] = test: Antiproliferative activity against mouse BaF3 cells harbouring CD74-NTRK1 fusion protein incubated for 3 days by CCK8 method; conditions: BaF3, 72 h
BaF3 [6] = test: Antiproliferative activity against mouse BaF3 cells harbouring ETV6-NTRK3 fusion protein incubated for 3 days by CCK8 method; conditions: BaF3, 72 h
BaF3 [7] = test: Antiproliferative activity against mouse BaF3 cells harbouring CD74-NTRK1 G595R mutant fusion protein incubated for 3 days by CCK8 method; type: functional, cell-based; conditions: BaF3, 72 h
BaF3 [8] = test: cells; conditions: Mus musculus, BaF3, 72 h
BaF3 [9] = test: Antiproliferative activity against mouse BaF3 cells harbouring TRKA-F589L fusion protein incubated for 3 days by CCK8 method; conditions: BaF3, 72 h
BaF3 [10] = test: Antiproliferative activity against mouse BaF3 cells harbouring CD74-[…] mutant fusion protein incubated for 3 days by CCK8 method; type: functional, cell-based; conditions: BaF3, 72 h
BaF3 [11] = test: Antiproliferative activity against mouse BaF3 cells harbouring wild type ETV6-TRKB incubated for 3 days by CCK8 method; conditions: BaF3, 72 h
BaF3 [12] = test: Antiproliferative activity against mouse BaF3 cells harbouring CD74-TRKA G6678 mutant incubated for 3 days by CCK8 method; conditions: BaF3, 72 h
BaF3 [13] = test: Antiproliferative activity against mouse BaF3 cells harbouring CD74-TRKA G667A mutant incubated for 3 days by CCK8 method; conditions: BaF3, 72 h
BaF3 [14] = test: Antiproliferative activity against mouse BaF3 cells harbouring ETV6-TRKB G709C mutant incubated for 3 days by CCK8 method; conditions: BaF3, 72 h
BaF3 [15] = test: Antiproliferative activity against mouse BaF3 cells harbouring ETV6-TRKC G696C mutant incubated for 3 days by CCK8 method; conditions: BaF3, 72 h
BaF3 [16] = test: Antiproliferative activity against mouse BaF3 cells harbouring ETV6-TRKC G696A mutant incubated for 3 days by CCK8 method; conditions: BaF3, 72 h
BaF3 [17] = test: Antiproliferative activity against mouse BaF3 cells harbouring ETV6-TRKC G6968 mutant incubated for 3 days by CCK8 method; conditions: BaF3, 72 h
BaF3 [18] = test: Antiproliferative activity against mouse BaF3 cells harbouring ETV6-TRKB G639R mutant incubated for 3 days by CCK8 method; conditions: BaF3, 72 h
BaF3 [19] = test: Antiproliferative activity against mouse BaF3 cells harbouring ETV6-TRKC G623E mutant incubated for 3 days by CCK8 method; conditions: BaF3, 72 h
BaF3 [20] = test: Antiproliferative activity against mouse BaF3 cells harbouring ETV6-TRKC G623R mutant incubated for 3 days by CCK8 method; conditions: BaF3, 72 h
BaF3 [21] = test: Antiproliferative activity against mouse BaF3 cells harbouring ETV6-TRKB F633L mutant incubated for 3 days by CCK8 method; conditions: BaF3, 72 h
BaF3 [22] = test: Antiproliferative activity against mouse BaF3 cells harbouring ETV6-TRKC F617L mutant incubated for 3 days by CCK8 method; conditions: BaF3, 72 h
BaF3 [23] = test: Antiproliferative activity against mouse BaF3 cells harbouring CD74-TRKA V573M mutant incubated for 3 days by CCK8 method; conditions: BaF3, 72 h
BaF3 [24] = test: Antiproliferative activity against mouse BaF3 cells harbouring ETV6-TRKB V617M mutant incubated for 3 days by CCK8 method; conditions: BaF3, 72 h
BaF3 [25] = test: Antiproliferative activity against mouse BaF3 cells harbouring ETV6-TRKC V601M mutant incubated for 3 days by CCK8 method; conditions: BaF3, 72 h
BaF3 [26] = test: Antiproliferative activity against mouse BaF3 cells incubated for 3 days by CCK8 method; conditions: BaF3, 72 h
BaF3 [27] = test: cells; conditions: Mus musculus, BaF3, 72 h; remark: listed apart in the source
BaF3 [28] = test: cells; conditions: Mus musculus, BaF3, 72 h; remark: listed apart in the source

Chain of High affinity nerve growth factor receptor (Homo sapiens, UniProt P04629) (P04629 whole entry, the tested form may be a part): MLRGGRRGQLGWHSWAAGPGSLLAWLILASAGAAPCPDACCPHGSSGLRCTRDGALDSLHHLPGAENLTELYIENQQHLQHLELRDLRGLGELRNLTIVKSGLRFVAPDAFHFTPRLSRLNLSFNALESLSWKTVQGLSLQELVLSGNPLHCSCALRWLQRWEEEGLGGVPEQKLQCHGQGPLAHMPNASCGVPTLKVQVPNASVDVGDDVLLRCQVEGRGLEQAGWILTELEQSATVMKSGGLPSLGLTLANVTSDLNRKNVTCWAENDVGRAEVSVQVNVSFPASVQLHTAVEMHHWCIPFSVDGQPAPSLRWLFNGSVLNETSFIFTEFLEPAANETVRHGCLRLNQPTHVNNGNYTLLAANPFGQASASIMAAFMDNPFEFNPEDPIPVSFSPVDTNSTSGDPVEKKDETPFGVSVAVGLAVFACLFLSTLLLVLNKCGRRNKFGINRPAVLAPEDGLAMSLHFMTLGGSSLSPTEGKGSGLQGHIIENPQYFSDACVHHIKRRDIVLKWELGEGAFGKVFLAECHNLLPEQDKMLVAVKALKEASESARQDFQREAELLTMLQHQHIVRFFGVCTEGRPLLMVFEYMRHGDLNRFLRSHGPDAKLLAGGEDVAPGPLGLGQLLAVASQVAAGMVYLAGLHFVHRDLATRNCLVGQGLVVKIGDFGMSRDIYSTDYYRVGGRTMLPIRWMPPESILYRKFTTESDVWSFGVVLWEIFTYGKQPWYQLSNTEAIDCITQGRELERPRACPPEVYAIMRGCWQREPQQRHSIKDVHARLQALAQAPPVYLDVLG

Structure (SMILES)	IC50 [1]	IC50 [2]	IC50 [3]	IC50 [4]	IC50 (BaF3 [5])	IC50 (BaF3 [6])	IC50 (BaF3 [7])	IC50 (BaF3 [8])	IC50 (BaF3 [9])	other results
Cc1cn(-c2cc(NC(=O)c3cc4cc(c3C)C#Cc3cnc5ccc(nn35)NCCN(C)C(=O)CCCCO4)cc(C(F)(F)F)c2)cn1	17.4 nM	5.95 nM	7.47 nM	124 nM	33.7 nM	17.1 nM	172 nM	5.51 nM		
Cc1c2cc(cc1C(=O)Nc1cc(Cl)cc(C(F)(F)F)c1)OCCCCCCCNC(=O)c1ccc3ncc(n3n1)C#C2	39.8 nM		8.08 nM	> 1000 nM						
Cc1c2cc(cc1NC(=O)Nc1ccc(Cl)c(C(F)(F)F)c1)OCCCCCCCNC(=O)c1ccc3ncc(n3n1)C#C2		42.4 nM								
Cc1cn(-c2cc(NC(=O)c3cc4cc(c3C)C#Cc3cnc5ccc(nn35)C(=O)NCCCCCCO4)cc(C(F)(F)F)c2)cn1	51.5 nM	9.45 nM	12.2 nM	562 nM	416 nM	541 nM		17.2 nM		
Cc1c2cc(cc1C(=O)Nc1cc(C(C)(C)C)nn1-c1ccc(Cl)cc1)OCCCCCCCNC(=O)c1ccc3ncc(n3n1)C#C2	164 nM	13.5 nM	14.6 nM	> 1000 nM	103 nM	70.2 nM		10.2 nM		
Cc1c2cc(cc1C(=O)Nc1cc(CN3CCN(C)CC3)cc(C(C)C)c1)OCCCCCCCNC(=O)c1ccc3ncc(n3n1)C#C2	7.85 nM	2.83 nM	16.8 nM	10.7 nM	20.5 nM	104 nM	42.3 nM	3.85 nM	32.7 nM	IC50 (BaF3 [10]): 18.9 nM
Cc1c2cc(cc1C(=O)Nc1cc(N3CCC(N4CCOCC4)CC3)cc(C(F)(F)F)c1)OCCCCCCCNC(=O)c1ccc3ncc(n3n1)C#C2	26.1 nM	8.51 nM	3.35 nM	109 nM	51.1 nM	29.5 nM	67.7 nM	3.78 nM	> 1000 nM	
Cc1c2cc(cc1C(=O)Nc1cc(CN3CCCN(C)CC3)cc(C(F)(F)F)c1)OCCCCCCCNC(=O)c1ccc3ncc(n3n1)C#C2	10.2 nM	4.05 nM	2.79 nM	39 nM	6.74 nM	48.4 nM	48.5 nM	1.26 nM	8.68 nM	IC50 (BaF3 [10]): 48.1 nM
Cc1c2cc(cc1C(=O)Nc1ccc(CN3CCN(C)CC3)c(C(F)(F)F)c1)OCCCCCCCNC(=O)c1ccc3ncc(n3n1)C#C2	15.1 nM	11.4 nM	3.55 nM	> 1000 nM	32.1 nM	3030 nM		2.25 nM		
Cc1c2cc(cc1C(=O)Nc1cc(CN3CCN(C)CC3)cc(C(F)(F)F)c1)OCCCCCCCNC(=O)c1ccc3ncc(n3n1)C#C2	15.7 nM		3.18 nM	54.8 nM						
Cc1cn(-c2cc(NC(=O)c3cc4cc(c3C)C#Cc3cnc5ccc(nn35)NCCC(=O)N(C)CCCCO4)cc(C(F)(F)F)c2)cn1	21.1 nM		5.83 nM	91.8 nM						
Cc1cn(-c2cc(NC(=O)c3cc4cc(c3C)C#Cc3cnc5ccc(nn35)NCCNC(=O)CCCCO4)cc(C(F)(F)F)c2)cn1	24.8 nM	7.06 nM	8.21 nM	> 1000 nM	271 nM	202 nM	> 1000 nM	40.9 nM		
Cc1c2cc(cc1C(=O)Nc1cc(CN3CCN(C)CC3)cc(C(C)(C)C)c1)OCCCCCCCNC(=O)c1ccc3ncc(n3n1)C#C2	19 nM	5.22 nM	3.06 nM	30.6 nM	34.5 nM	161 nM	65.6 nM	5.96 nM	45.4 nM	IC50 (BaF3 [10]): 12.2 nM
Cc1cn(-c2cc(NC(=O)c3cc4cc(c3C)C#Cc3cnc5ccc(nn35)C(=O)NCCCCCO4)cc(C(F)(F)F)c2)cn1	58.1 nM	20.3 nM	124 nM	> 1000 nM	134 nM	140 nM		8.54 nM		
Cc1cn(-c2cc(NC(=O)c3cc4cc(c3C)C#Cc3cnc5ccc(nn35)C(=O)NCCCCCCCCO4)cc(C(F)(F)F)c2)cn1	63.4 nM	27.8 nM	7.5 nM	> 1000 nM	59.7 nM	32.2 nM		8.21 nM		
Cc1cn(-c2cc(NC(=O)c3cc4cc(c3C)C#Cc3cnc5ccc(nn35)NCCC(=O)NCCCCO4)cc(C(F)(F)F)c2)cn1	21 nM		5.29 nM	85.2 nM						
C[C@H]1CNC(=O)c2cnn3ccc(nc23)N[C@H](C)c2cc(F)ccc2O1 [REPOTRECTINIB]					1.39 nM	1.9 nM		15.7 nM	1.61 nM	IC50 (BaF3 [10]): 3.32 nM; IC50 (BaF3 [11]): 0.66 nM; IC50 (BaF3 [12]): 8.12 nM; IC50 (BaF3 [13]): 0.88 nM; IC50 (BaF3 [14]): 9.44 nM; IC50 (BaF3 [15]): 17 nM; IC50 (BaF3 [16]): 1.14 nM; IC50 (BaF3 [17]): 4.59 nM; IC50 (BaF3 [18]): 19.3 nM; IC50 (BaF3 [19]): 5.4 nM; IC50 (BaF3 [20]): 5.75 nM; IC50 (BaF3 [21]): 2.15 nM; IC50 (BaF3 [22]): 0.98 nM; IC50 (BaF3 [23]): 12.3 nM; IC50 (BaF3 [24]): 10.8 nM; IC50 (BaF3 [25]): 23.1 nM; IC50 (BaF3 [26]): 892 nM; IC50 (BaF3 [27]): 159 nM; IC50 (BaF3 [28]): 78.3 nM
C[C@@H]1CCc2ncc(F)cc2[C@H]2CCCN2c2ccn3ncc(c3n2)C(=O)N1 [SELITRECTINIB]					1.35 nM	1.36 nM	10.3 nM	22.2 nM	31.5 nM	IC50 (BaF3 [10]): 26.1 nM; IC50 (BaF3 [11]): 2.32 nM; IC50 (BaF3 [12]): 37 nM; IC50 (BaF3 [13]): 3.39 nM; IC50 (BaF3 [14]): 42 nM; IC50 (BaF3 [15]): 48.2 nM; IC50 (BaF3 [16]): 4.15 nM; IC50 (BaF3 [17]): 11 nM; IC50 (BaF3 [18]): 41.1 nM; IC50 (BaF3 [19]): 7.48 nM; IC50 (BaF3 [20]): 5.08 nM; IC50 (BaF3 [21]): 35.8 nM; IC50 (BaF3 [22]): 17.2 nM; IC50 (BaF3 [24]): 26.4 nM; IC50 (BaF3 [25]): 30.7 nM; IC50 (BaF3 [26]): > 1000 nM; IC50 (BaF3 [27]): > 1000 nM; IC50 (BaF3 [28]): 423 nM

Source: ChEMBL document CHEMBL5365464, “Structure-Based Optimization of the Third Generation Type II Macrocycle TRK Inhibitors with Improved Activity against Solvent-Front, xDFG, and Gatekeeper Mutations” (J Med Chem, 2023)
